In ChEMBL document CHEMBL1201862, “PubChem BioAssay data set” (2004):
Active and inactive are the calls of the source. Cut-off read from the data, not from the text of the source, for most assays here: actives have a measured EC50 and inactives only a lower limit.

Columns and labels:
[1] = tested on: H9c2; experiment: cells; type: functional, cell-based; details: Rattus norvegicus, H9c2, Myocardium;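 note: confirmatory concentration-response retest of ultra-high-throughput screening hits for modulation of myocardial damage; cell death induced by hydrogen peroxide oxidative stress; compound pretreatment for 60 min then peroxide exposure for 2 h; potency is for protecting the cells against peroxide damage rather than for killing them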
[2] = molecular target: T1, Zinc finger protein mex-5 (Caenorhabditis elegans, UniProt Q9XUB2); experiment: MEX-5/TCR-2 RNA interaction inhibitors, dose response, biochemical, C. elegans, fluorescence polarization (AID 1960)
T1 sequence (Q9XUB2 whole entry): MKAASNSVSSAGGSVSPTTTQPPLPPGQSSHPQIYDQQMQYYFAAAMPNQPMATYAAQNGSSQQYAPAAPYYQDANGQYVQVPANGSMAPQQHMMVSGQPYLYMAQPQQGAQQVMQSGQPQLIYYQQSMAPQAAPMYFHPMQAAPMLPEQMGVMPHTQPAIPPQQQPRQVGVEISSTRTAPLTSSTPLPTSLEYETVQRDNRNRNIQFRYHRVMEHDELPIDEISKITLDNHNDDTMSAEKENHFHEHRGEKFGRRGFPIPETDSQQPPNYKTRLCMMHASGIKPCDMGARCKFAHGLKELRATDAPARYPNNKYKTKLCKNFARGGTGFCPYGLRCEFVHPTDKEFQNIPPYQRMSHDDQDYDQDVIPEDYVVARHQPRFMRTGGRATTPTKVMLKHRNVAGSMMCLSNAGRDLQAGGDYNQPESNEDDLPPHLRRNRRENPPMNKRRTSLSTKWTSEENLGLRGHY

[3] = molecular target: T2, RNA-binding protein pos-1 (Caenorhabditis elegans, UniProt G5EF15); experiment: inhibitors of POS-1/mex-3 RNA binding, dose response, biochemical, fluorescence polarization (AID 1964);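 note: purified POS-1 fused to maltose binding protein made in E. coli; potency of compounds blocking POS-1 binding to fluorescent RNA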
T2 sequence (G5EF15 whole entry): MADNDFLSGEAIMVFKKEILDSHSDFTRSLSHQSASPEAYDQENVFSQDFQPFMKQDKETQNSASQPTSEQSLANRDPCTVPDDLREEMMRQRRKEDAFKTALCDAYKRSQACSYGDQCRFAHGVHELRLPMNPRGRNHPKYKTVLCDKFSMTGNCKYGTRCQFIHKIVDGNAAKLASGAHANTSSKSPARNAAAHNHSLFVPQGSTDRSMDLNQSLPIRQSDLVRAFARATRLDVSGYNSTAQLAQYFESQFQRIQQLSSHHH

[4] = tested on: H4; experiment: Luminescence Cell-Based Dose Response HTS to Identify Activators of 5'UTR Stem-Loop Driven Prion Protein mRNA Translation in H4 Neuroglioblastoma Cells. [Related pubchem assays: 1829 (Project Summary), 1814 (Primary HTS)]; type: functional; details: Homo sapiens
[5] = Luminescence Cell-Based Dose Response HTS to Identify Activators of Luciferase Translation or Activity in H4 […] Cells. [Related pubchem assays: 1829 (Project Summary), 1814 (Primary HTS)]; type: functional
[6] = molecular target: Luciferin 4-monooxygenase (Photinus pyralis, UniProt P08659); experiment: firefly luciferase enzyme inhibitors, dose response, biochemical, luminescence (AID 1891)
[7] = Luminescence Cell-Based Dose Confirmation HTS to Identify Inhibitors of Platelet Dense Granule Release. [Related pubchem assays: 1663 (Primary HTS), 1678 (Summary of Project)]; type: functional
[8] = molecular target: T3, Calpain-2 catalytic subunit (Sus scrofa, UniProt P43367); experiment: pig calpain II inhibitor potency, dose response, biochemical, fluorogenic peptide substrate (AID 1420); type: functional
T3 sequence (P43367 whole entry): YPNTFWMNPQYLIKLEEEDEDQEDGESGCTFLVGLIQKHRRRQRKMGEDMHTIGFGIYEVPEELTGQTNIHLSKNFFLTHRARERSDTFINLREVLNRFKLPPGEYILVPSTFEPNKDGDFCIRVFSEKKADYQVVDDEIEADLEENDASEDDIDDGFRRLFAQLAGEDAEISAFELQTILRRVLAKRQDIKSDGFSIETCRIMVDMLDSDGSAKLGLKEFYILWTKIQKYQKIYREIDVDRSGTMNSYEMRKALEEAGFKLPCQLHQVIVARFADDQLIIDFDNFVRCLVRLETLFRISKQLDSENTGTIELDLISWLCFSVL

[9] = molecular target: Large T antigen (Simian virus 40, UniProt P03070); type: functional, Betapolyomavirus macacae;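 note: Confirmatory-stage PubChem screen for compounds that inhibit SV40 T antigen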
[10] = molecular target: T4, Ubiquitin-conjugating enzyme E2 N (Homo sapiens, UniProt P61088); type: functional;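 note: Dose-response confirmation in a TR-FRET assay detecting UBC13-driven polyubiquitin chain formation, inhibition measured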
T4 sequence (P61088 whole entry): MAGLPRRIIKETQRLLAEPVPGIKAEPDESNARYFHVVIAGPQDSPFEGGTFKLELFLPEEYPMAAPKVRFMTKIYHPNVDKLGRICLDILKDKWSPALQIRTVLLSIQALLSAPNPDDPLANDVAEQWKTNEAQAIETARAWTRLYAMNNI

[11] = cytotoxicity toward DRD oncogenic fibroblasts, dose response, cell-based, non-viral oncogenic, luminescence (AID 1934); type: functional; details: Homo sapiens
[12] = tested on: BJ; experiment: cytotoxicity toward BJ-TERT fibroblasts, dose response, cell-based, RAS-independent, luminescence (AID 1933); type: functional; details: Homo sapiens
[13] = tested on: BJ; experiment: cells; type: functional, cell-based; details: Homo sapiens
[14] = tested on: BJ; experiment: cytotoxicity toward BJ-TERT-LT-ST fibroblasts, dose response, cell-based, RAS-independent, luminescence (AID 1935); type: functional; details: Homo sapiens;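 note: BJ fibroblasts immortalized with TERT plus LT and ST oncogenes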
[15] = cells; type: functional
[16] = molecular target: T5, Corticotropin-releasing factor receptor 2/Corticotropin-releasing factor-binding protein (Homo sapiens, UniProt P24387+Q13324); experiment: activators of CRF receptor 2 with binding protein – uHTS hits, confirmation (AID 602473); type: functional; details: read-out: EC50_Mean
T5 sequence (Q13324 whole entry): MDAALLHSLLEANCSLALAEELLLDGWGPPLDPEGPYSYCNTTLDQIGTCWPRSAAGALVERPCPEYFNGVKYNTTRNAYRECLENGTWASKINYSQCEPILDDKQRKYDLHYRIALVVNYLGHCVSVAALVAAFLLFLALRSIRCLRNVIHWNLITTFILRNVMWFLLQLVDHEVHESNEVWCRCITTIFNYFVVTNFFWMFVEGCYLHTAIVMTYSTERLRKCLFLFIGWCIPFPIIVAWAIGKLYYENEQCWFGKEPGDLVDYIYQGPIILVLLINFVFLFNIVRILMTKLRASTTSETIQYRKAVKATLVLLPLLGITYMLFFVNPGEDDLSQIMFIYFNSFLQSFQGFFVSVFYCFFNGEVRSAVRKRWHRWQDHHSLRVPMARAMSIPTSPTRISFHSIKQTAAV
T5 sequence (P24387 whole entry): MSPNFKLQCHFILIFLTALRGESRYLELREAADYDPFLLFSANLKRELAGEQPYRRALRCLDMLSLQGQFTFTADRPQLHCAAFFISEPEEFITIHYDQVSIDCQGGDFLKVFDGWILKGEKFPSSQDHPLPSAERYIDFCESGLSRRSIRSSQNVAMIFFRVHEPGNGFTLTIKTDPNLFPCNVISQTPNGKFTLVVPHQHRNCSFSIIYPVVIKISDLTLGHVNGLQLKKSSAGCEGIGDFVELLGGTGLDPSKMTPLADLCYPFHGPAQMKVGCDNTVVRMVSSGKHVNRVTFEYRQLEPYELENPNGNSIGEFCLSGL

Luciferin 4-monooxygenase, sequence (P08659 whole entry): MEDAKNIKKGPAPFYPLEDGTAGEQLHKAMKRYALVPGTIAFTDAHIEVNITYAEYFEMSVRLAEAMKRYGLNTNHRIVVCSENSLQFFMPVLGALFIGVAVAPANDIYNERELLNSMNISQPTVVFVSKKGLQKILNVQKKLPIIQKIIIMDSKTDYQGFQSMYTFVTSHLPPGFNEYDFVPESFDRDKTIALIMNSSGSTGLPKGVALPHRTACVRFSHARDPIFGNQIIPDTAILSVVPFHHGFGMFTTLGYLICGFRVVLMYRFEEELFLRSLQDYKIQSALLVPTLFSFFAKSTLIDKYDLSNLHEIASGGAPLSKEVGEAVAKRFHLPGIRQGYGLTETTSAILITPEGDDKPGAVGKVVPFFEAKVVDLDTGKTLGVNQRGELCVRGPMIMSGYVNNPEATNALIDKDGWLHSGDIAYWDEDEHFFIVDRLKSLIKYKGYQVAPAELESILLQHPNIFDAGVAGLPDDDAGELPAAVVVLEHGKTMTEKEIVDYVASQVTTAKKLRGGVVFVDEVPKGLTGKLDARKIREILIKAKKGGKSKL
Large T antigen, sequence (P03070 whole entry): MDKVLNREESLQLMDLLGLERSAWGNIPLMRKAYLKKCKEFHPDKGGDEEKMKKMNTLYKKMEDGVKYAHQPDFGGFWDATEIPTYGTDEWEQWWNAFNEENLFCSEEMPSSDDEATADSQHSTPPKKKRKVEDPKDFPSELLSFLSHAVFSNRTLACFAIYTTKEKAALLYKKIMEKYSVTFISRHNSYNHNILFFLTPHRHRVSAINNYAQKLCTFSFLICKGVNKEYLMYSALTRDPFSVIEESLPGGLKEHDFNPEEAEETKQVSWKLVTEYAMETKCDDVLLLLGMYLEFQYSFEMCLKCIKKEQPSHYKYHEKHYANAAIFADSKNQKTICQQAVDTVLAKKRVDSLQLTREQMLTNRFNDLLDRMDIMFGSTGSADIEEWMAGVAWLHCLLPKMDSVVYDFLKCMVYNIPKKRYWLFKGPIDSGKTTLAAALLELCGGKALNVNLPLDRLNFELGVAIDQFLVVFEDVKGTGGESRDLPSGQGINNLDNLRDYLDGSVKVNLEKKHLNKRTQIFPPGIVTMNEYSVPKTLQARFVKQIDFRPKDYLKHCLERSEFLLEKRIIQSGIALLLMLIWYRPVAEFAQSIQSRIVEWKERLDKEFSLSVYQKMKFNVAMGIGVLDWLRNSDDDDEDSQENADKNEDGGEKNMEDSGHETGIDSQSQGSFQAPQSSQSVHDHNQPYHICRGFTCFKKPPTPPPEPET

Structure (SMILES): Nc1ccc(-c2nnc(O)c3ccccc23)cc1N
- IC50 [1]: > 79 µM (inactive)

Structure (SMILES): O=C1NC(=O)[C@@H]2C3c4ccccc4C=CN3[C@H](C(=O)c3cccs3)[C@H]12 (some centres undefined)
- EC50 [2]: 16.4 µM (active)
- EC50 [3]: 24.6 µM (inconclusive)

Structure (SMILES): O=S(=O)(c1ccccc1)N1CCN(c2nc(-c3cccnc3)nc3ccccc23)CC1
- IC50 [1]: 10.2 µM (active)

Structure (SMILES): CC(=O)c1ccc(NC(=O)CSc2nnc(-c3ccncc3)o2)cc1
- EC50 [2]: > 300 µM (not active)
- EC50 [3]: > 300 µM (not active)

Structure (SMILES): Brc1ccc(-c2csc(NC3=NCCCCC3)n2)cc1
- EC50 [4]: 36.6 µM (active)
- EC50 [5]: 18.9 µM (active)

Structure (SMILES): COc1ccccc1NS(=O)(=O)c1ccc2oc(SCC(=O)N3CCNC3=O)nc2c1
- IC50 [1]: 15.8 µM (active)

Structure (SMILES): COc1ccc(NC(=O)CCS(=O)(=O)c2ccc3nc(C)sc3c2)cc1OC
- EC50 [6]: > 112 µM (not active)
- EC50 [7]: > 112 µM (not active)

Structure (SMILES): CCOc1ccc(Cl)cc1S(=O)(=O)N1CCN(c2ccc(F)cc2)CC1
- IC50 [8]: 7.1 µM (not active)

Structure (SMILES): COC(=O)c1sccc1NC(=O)Nc1ccc(F)cc1
- EC50 [6]: 0.535 µM (active)
- EC50 [7]: 1.67 µM (active)

Structure (SMILES): COc1cc2c(cc1OC)C[N+](C)(C)CC2
- IC50 [9]: 55.1 µM (active)

Structure (SMILES): COc1cc(C(=O)Nc2nc3ccc(S(C)(=O)=O)cc3s2)cc(OC)c1C
- IC50 [10]: > 20 µM (inactive)

Structure (SMILES): COc1ccc(NC(=O)c2c(Cl)n(C)c3ccccc23)cc1
- EC50 [11]: 25.3 µM (active)
- EC50 [12]: 22.7 µM (active)
- EC50 [13]: 23 µM (active)
- EC50 [14]: > 150 µM (inconclusive)

Structure (SMILES): Nc1ncccc1OCc1ccc(Br)cc1
- EC50 [4]: > 120 µM (not active)
- EC50 [5]: 1.05 µM (active)

Structure (SMILES): CCOC(=O)COc1cc(N)c(Cl)cc1Cl
- IC50 [15]: 7.65 µM (active)

Structure (SMILES): C[C@@H]1ON(C)[C@H]2C[C@H]3c4[nH]c5ccc(-c6ccc7c(c6)OCO7)cc5c4CCN3C[C@@H]12
- IC50 [1]: > 79 µM (inactive)

Structure (SMILES): COc1ccccc1-c1cc(C(=O)N/N=C/C=C/c2ccccc2[N+](=O)[O-])c2ccccc2n1
- IC50 [1]: > 79 µM (inactive)

Structure (SMILES): COC(=O)c1c(C)[nH]c(O)c1/C=N/c1ccc(Oc2ccccc2)cc1
- EC50 [16]: > 53 µM (inactive)
- IC50 [1]: > 79 µM (inactive)

Structure (SMILES): COc1ccc(/C=N/NC(=O)c2ccc(Br)cc2)cc1CN1CCOCC1
- IC50 [9]: 15.8 µM (active)

Structure (SMILES): O/N=C(\c1ccc(Cl)cc1)c1cc2ccccc2o1
- IC50 [8]: 2.06 µM (not active)
